Tests used:
Assay type in all cases: in vivo
fig-leafed goosefoot = experiment: Test Example 3: weedkilling efficacy through soil treatment; M: fig-leafed goosefoot; conditions: soil treatment, treatment dosage 315 g/ha
Excerpt: (§1) Weedkilling Efficacy Test Through Soil Treatment
(§2) Sterilized diluvial soil was introduced into 21 cm long, 13 cm wide, 7 cm deep plastic boxes, and seeds of crabgrass, green foxtail, barnyard grass, wild oat, black-grass, Italian ryegrass, common wind-grass, Indian mallow, redroot pigweed, fig-leafed goosefoot, chickweed, catchweed, birds-eye speedwell, corn, soybean, rice, wheat, beet and rapeseed were each spot-sown, and covered with about 1.5 cm of soil. Next, emulsions of compounds of the present invention prepared according to compounding example 2 were diluted with water to give the specified dosages, and applied uniformly onto the soil surface with a small sprayer. The plants were grown by placing the plastic boxes in a greenhouse at 25 to 30° C., and 3 weeks after the pesticide treatment the effect on each type of plant was investigated on the basis of the assessment criteria of test example 1.
(§3) A: barnyard grass, B: bulrush, C: oval-leafed pondweed, D: crabgrass, E: green foxtail, F: barnyard grass, G: wild oat, H: black-grass, I: Italian ryegrass, J: common wind-grass, K: Indian mallow, L: redroot pigweed, M: fig-leafed goosefoot, N: chickweed, O: catchweed, p: birds-eye speedwell, a: transplanted rice, b: directly sown rice, c: corn, d: soybean, e: wheat, f: beet, g: rapeseed
(§4) Further, pesticide dosage (g/ha) indicates the concentration regulated such that treatment was with only the stated number of grams (g), when calculated per hectare (ha).

chickweed = experiment: Test Example 3: weedkilling efficacy through soil treatment; N: chickweed; conditions: soil treatment, treatment dosage 315 g/ha
Excerpt: as §1, §2, §3, §4

bulrush [1] = experiment: Test Example 1: weedkilling efficacy, preemergent weed treatment in the submerged state; B: bulrush; conditions: treatment dosage 252 g/ha
Procedure, shortened: (§5)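 Pots of alluvial soil flooded 4 cm deep, sown with barnyard grass, bulrush and oval-leafed pondweed and transplanted with 2.5-leaf rice. Emulsified compound applied to the water surface on sowing day at stated g/ha; greenhouse 25–30 °C, effects assessed 3 weeks after treatment.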

Italian ryegrass = experiment: Test Example 3: weedkilling efficacy through soil treatment; I: Italian ryegrass; conditions: soil treatment, treatment dosage 315 g/ha
Excerpt: as §1, §2, §3, §4

wild oat = experiment: Test Example 3: weedkilling efficacy through soil treatment; G: wild oat; conditions: soil treatment, treatment dosage 315 g/ha
Excerpt: as §1, §2, §3, §4

green foxtail = experiment: Test Example 3: weedkilling efficacy through soil treatment; E: green foxtail; conditions: soil treatment, treatment dosage 315 g/ha
Excerpt: as §1, §2, §3, §4

transplanted rice = experiment: Test Example 1: preemergent weed treatment in the submerged state, effect on crop; a: transplanted rice; conditions: treatment dosage 252 g/ha
Procedure, shortened: as §5

beet = experiment: Test Example 3: soil treatment, effect on crop; f: beet; conditions: soil treatment, treatment dosage 315 g/ha
Excerpt: as §1, §2, §3, §4

wheat = experiment: Test Example 3: soil treatment, effect on crop; e: wheat; conditions: soil treatment, treatment dosage 315 g/ha
Excerpt: as §1, §2, §3, §4

bulrush [2] = experiment: Test Example 2: weedkilling efficacy, growth period weed treatment in the submerged state; B: bulrush; conditions: treatment dosage 252 g/ha
Procedure, shortened: (§6)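 Barnyard grass, bulrush and oval-leafed pondweed sown in alluvial soil under 4 cm flooding, greenhouse 25 to 30° C. At 1-2 leaf stage, water-diluted emulsion applied to the water surface at stated g/ha dosages; effects scored 3 weeks later.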

corn = experiment: Test Example 3: soil treatment, effect on crop; c: corn; conditions: soil treatment, treatment dosage 315 g/ha
Excerpt: as §1, §2, §3, §4

crabgrass = experiment: Test Example 3: weedkilling efficacy through soil treatment; D: crabgrass; conditions: soil treatment, treatment dosage 315 g/ha
Excerpt: as §1, §2, §3, §4

oval-leafed pondweed [3] = experiment: Test Example 1: weedkilling efficacy, preemergent weed treatment in the submerged state; C: oval-leafed pondweed; conditions: treatment dosage 252 g/ha
Procedure, shortened: as §5

directly sown rice = experiment: Test Example 3: soil treatment, effect on crop; b: directly sown rice; conditions: soil treatment, treatment dosage 315 g/ha
Excerpt: as §1, §2, §3, §4

oval-leafed pondweed [4] = experiment: Test Example 2: weedkilling efficacy, growth period weed treatment in the submerged state; C: oval-leafed pondweed; conditions: treatment dosage 252 g/ha
Procedure, shortened: as §6

Indian mallow = experiment: Test Example 3: weedkilling efficacy through soil treatment; K: Indian mallow; conditions: soil treatment, treatment dosage 315 g/ha
Excerpt: as §1, §2, §3, §4

soybean = experiment: Test Example 3: soil treatment, effect on crop; d: soybean; conditions: soil treatment, treatment dosage 315 g/ha
Excerpt: as §1, §2, §3, §4

black-grass = experiment: Test Example 3: weedkilling efficacy through soil treatment; H: black-grass; conditions: soil treatment, treatment dosage 315 g/ha
Excerpt: as §1, §2, §3, §4

redroot pigweed = experiment: Test Example 3: weedkilling efficacy through soil treatment; L: redroot pigweed; conditions: soil treatment, treatment dosage 315 g/ha
Excerpt: as §1, §2, §3, §4

barnyard grass [5] = experiment: Test Example 2: weedkilling efficacy, growth period weed treatment in the submerged state; A: barnyard grass; conditions: treatment dosage 252 g/ha
Procedure, shortened: as §6

barnyard grass [6] = experiment: Test Example 1: weedkilling efficacy, preemergent weed treatment in the submerged state; A: barnyard grass; conditions: treatment dosage 252 g/ha
Procedure, shortened: as §5

## Cc1cnc(NC(=O)C(C)(C)N2COCN(c3ccccc3)C2=O)s1 [A-1-08]
fig-leafed goosefoot
  M: fig-leafed goosefoot, weedkilling efficacy grade: 2 (weed kill ratio 20% or more, less than 40%)
chickweed
  N: chickweed, weedkilling efficacy grade: 2 (weed kill ratio 20% or more, less than 40%)
Bulrush [1]
  B: bulrush, weed kill grade: 5 (weed kill ratio 90% or more, (practically complete withering))
Italian ryegrass
  I: Italian ryegrass, weedkilling efficacy grade: 4 (weed kill ratio 70% or more, less than 90%)
Wild oat
  G: wild oat, weedkilling efficacy grade: 3 (weed kill ratio 40% or more, less than 70%)
Green foxtail
  E: green foxtail, weedkilling efficacy grade: 5 (weed kill ratio 90% or more, (practically complete withering))
Transplanted rice
  a: transplanted rice, effect on crop grade: 0 (weed kill ratio 5% or less (practically no effect))
beet
  f: beet, effect on crop grade: 0 (weed kill ratio 5% or less (practically no effect))
wheat
  e: wheat, effect on crop grade: 0 (weed kill ratio 5% or less (practically no effect))
Bulrush [2]
  B (bulrush) weedkilling efficacy grade: 5 (weed kill ratio 90% or more, (practically complete withering))
corn
  c: corn, effect on crop grade: 1 (weed kill ratio 5% or more, less than 20%)
crabgrass
  D: crabgrass, weedkilling efficacy grade: 5 (weed kill ratio 90% or more, (practically complete withering))
oval-leafed pondweed [3]
  C: oval-leafed pondweed, weed kill grade: 5 (weed kill ratio 90% or more, (practically complete withering))
Directly sown rice
  b: directly sown rice, effect on crop grade: 4 (weed kill ratio 70% or more, less than 90%)
oval-leafed pondweed [4]
  C (oval-leafed pondweed) weedkilling efficacy grade: 3 (weed kill ratio 40% or more, less than 70%)
Indian mallow
  K: Indian mallow, weedkilling efficacy grade: 1 (weed kill ratio 5% or more, less than 20%)
soybean
  d: soybean, effect on crop grade: 0 (weed kill ratio 5% or less (practically no effect))
black-grass
  H: black-grass, weedkilling efficacy grade: 5 (weed kill ratio 90% or more, (practically complete withering))
Redroot pigweed
  L: redroot pigweed, weedkilling efficacy grade: 4 (weed kill ratio 70% or more, less than 90%)
Barnyard grass [5]
  A (barnyard grass) weedkilling efficacy grade: 4 (weed kill ratio 70% or more, less than 90%)
Barnyard grass [6]
  A: barnyard grass, weed kill grade: 5 (weed kill ratio 90% or more, (practically complete withering))

## Cc1cc(NC(=O)C(C)(C)N2COCN(c3ccccc3)C2=O)sn1 [A-1-10]
fig-leafed goosefoot
  M: fig-leafed goosefoot, weedkilling efficacy grade: 4 (weed kill ratio 70% or more, less than 90%)
chickweed
  N: chickweed, weedkilling efficacy grade: 0 (weed kill ratio 5% or less (practically no effect))
Bulrush [1]
  B: bulrush, weed kill grade: 5 (weed kill ratio 90% or more, (practically complete withering))
Italian ryegrass
  I: Italian ryegrass, weedkilling efficacy grade: 4 (weed kill ratio 70% or more, less than 90%)
Wild oat
  G: wild oat, weedkilling efficacy grade: 0 (weed kill ratio 5% or less (practically no effect))
Green foxtail
  E: green foxtail, weedkilling efficacy grade: 4 (weed kill ratio 70% or more, less than 90%)
Transplanted rice
  a: transplanted rice, effect on crop grade: 0 (weed kill ratio 5% or less (practically no effect))
beet
  f: beet, effect on crop grade: 4 (weed kill ratio 70% or more, less than 90%)
wheat
  e: wheat, effect on crop grade: 0 (weed kill ratio 5% or less (practically no effect))
Bulrush [2]
  B (bulrush) weedkilling efficacy grade: 5 (weed kill ratio 90% or more, (practically complete withering))
corn
  c: corn, effect on crop grade: 0 (weed kill ratio 5% or less (practically no effect))
crabgrass
  D: crabgrass, weedkilling efficacy grade: 4 (weed kill ratio 70% or more, less than 90%)
oval-leafed pondweed [3]
  C: oval-leafed pondweed, weed kill grade: 3 (weed kill ratio 40% or more, less than 70%)
Directly sown rice
  b: directly sown rice, effect on crop grade: 0 (weed kill ratio 5% or less (practically no effect))
oval-leafed pondweed [4]
  C (oval-leafed pondweed) weedkilling efficacy grade: 0 (weed kill ratio 5% or less (practically no effect))
Indian mallow
  K: Indian mallow, weedkilling efficacy grade: 3 (weed kill ratio 40% or more, less than 70%)
soybean
  d: soybean, effect on crop grade: 0 (weed kill ratio 5% or less (practically no effect))
black-grass
  H: black-grass, weedkilling efficacy grade: 2 (weed kill ratio 20% or more, less than 40%)
Redroot pigweed
  L: redroot pigweed, weedkilling efficacy grade: 4 (weed kill ratio 70% or more, less than 90%)
Barnyard grass [5]
  A (barnyard grass) weedkilling efficacy grade: 0 (weed kill ratio 5% or less (practically no effect))
Barnyard grass [6]
  A: barnyard grass, weed kill grade: 3 (weed kill ratio 40% or more, less than 70%)

## Cc1cccc(NC(=O)C(C)(C)N2COCN(c3ccccc3)C2=O)n1 [A-2-38]
fig-leafed goosefoot
  M: fig-leafed goosefoot, weedkilling efficacy grade: 4 (weed kill ratio 70% or more, less than 90%)
chickweed
  N: chickweed, weedkilling efficacy grade: 4 (weed kill ratio 70% or more, less than 90%)
Bulrush [1]
  B: bulrush, weed kill grade: 5 (weed kill ratio 90% or more, (practically complete withering))
Italian ryegrass
  I: Italian ryegrass, weedkilling efficacy grade: 5 (weed kill ratio 90% or more, (practically complete withering))
Wild oat
  G: wild oat, weedkilling efficacy grade: 5 (weed kill ratio 90% or more, (practically complete withering))
Green foxtail
  E: green foxtail, weedkilling efficacy grade: 5 (weed kill ratio 90% or more, (practically complete withering))
Transplanted rice
  a: transplanted rice, effect on crop grade: 0 (weed kill ratio 5% or less (practically no effect))
beet
  f: beet, effect on crop grade: 4 (weed kill ratio 70% or more, less than 90%)
wheat
  e: wheat, effect on crop grade: 0 (weed kill ratio 5% or less (practically no effect))
Bulrush [2]
  B (bulrush) weedkilling efficacy grade: 5 (weed kill ratio 90% or more, (practically complete withering))
corn
  c: corn, effect on crop grade: 2 (weed kill ratio 20% or more, less than 40%)
crabgrass
  D: crabgrass, weedkilling efficacy grade: 5 (weed kill ratio 90% or more, (practically complete withering))
oval-leafed pondweed [3]
  C: oval-leafed pondweed, weed kill grade: 4 (weed kill ratio 70% or more, less than 90%)
Directly sown rice
  b: directly sown rice, effect on crop grade: 5 (weed kill ratio 90% or more, (practically complete withering))
oval-leafed pondweed [4]
  C (oval-leafed pondweed) weedkilling efficacy grade: 3 (weed kill ratio 40% or more, less than 70%)
Indian mallow
  K: Indian mallow, weedkilling efficacy grade: 2 (weed kill ratio 20% or more, less than 40%)
soybean
  d: soybean, effect on crop grade: 2 (weed kill ratio 20% or more, less than 40%)
black-grass
  H: black-grass, weedkilling efficacy grade: 5 (weed kill ratio 90% or more, (practically complete withering))
Redroot pigweed
  L: redroot pigweed, weedkilling efficacy grade: 5 (weed kill ratio 90% or more, (practically complete withering))
Barnyard grass [5]
  A (barnyard grass) weedkilling efficacy grade: 3 (weed kill ratio 40% or more, less than 70%)
Barnyard grass [6]
  A: barnyard grass, weed kill grade: 5 (weed kill ratio 90% or more, (practically complete withering))
